Measurements taken from patent US20240109865A1, “INDAZOLE COMPOUNDS AS KINASE INHIBITORS” (TYRA BIOSCIENCES, INC., priority 2020, published 2024).

Tests used:
Test in all cases: Kinase assay, binding constants (Kd), kinase-tagged T7 phage, qPCR
[1] = target: FGFR2 (Homo sapiens (Human), UniProt P21802)
Method: (§1) Kinase-tagged T7 phage strains were prepared in an E. coli host derived from the BL21 strain. E. coli were grown to log-phase and infected with T7 phage and incubated with shaking at 32° C. until lysis. The lysates were centrifuged and filtered to remove cell debris. Streptavidin-coated magnetic beads were treated with biotinylated small molecule ligands for 30 minutes at room temperature to generate affinity resins for kinase assays. The liganded beads were blocked with excess biotin and washed with blocking buffer SeaBlock (Pierce), […], 1 mM DTT to remove unbound ligand and to reduce non-specific binding.
(§2) Test compounds were prepared as 111λ stocks in 10000 DMS0. Kds were determined using an 11-point 3-fold compound dilution series with three DMSO control points. […] The compounds were then diluted directly into the assays such that the final concentration of DMSO was 0.9%. All reactions performed in polypropylene 384-well plate. Each was a final volume of 0.02 ml. […] The beads were then re-suspended in elution buffer (1×PBS, 0.05% Tween […] non-biotinylated affinity ligand) and incubated at room temperature with shaking for 30 minutes. The kinase concentration in the eluates was measured by qPCR.
(§3) Binding constants were calculated with a standard dose-response curve using the Hill equation: […]
(§4) The Hill Slope was set to −1. Curves were fitted using a non-linear least square fit with the Levenberg-Marquardt algorithm.

[2] = target: FGFR3 (Homo sapiens (Human), UniProt P22607)
Method: as §1, §2, §3, §4

[3] = target: FGFR4 (Homo sapiens (Human), UniProt P22455)
Method: as §1, §2, §3, §4

[4] = target: FGFR1 (Homo sapiens (Human), UniProt P11362)
Method: as §1, §2, §3, §4

[5] = target: FGFR3 (V555M) (Homo sapiens (Human), UniProt P22607, V555M); conditions: V555M mutant
Method: as §1, §2, §3, §4

FGFR3, sequence (P22607 23-806): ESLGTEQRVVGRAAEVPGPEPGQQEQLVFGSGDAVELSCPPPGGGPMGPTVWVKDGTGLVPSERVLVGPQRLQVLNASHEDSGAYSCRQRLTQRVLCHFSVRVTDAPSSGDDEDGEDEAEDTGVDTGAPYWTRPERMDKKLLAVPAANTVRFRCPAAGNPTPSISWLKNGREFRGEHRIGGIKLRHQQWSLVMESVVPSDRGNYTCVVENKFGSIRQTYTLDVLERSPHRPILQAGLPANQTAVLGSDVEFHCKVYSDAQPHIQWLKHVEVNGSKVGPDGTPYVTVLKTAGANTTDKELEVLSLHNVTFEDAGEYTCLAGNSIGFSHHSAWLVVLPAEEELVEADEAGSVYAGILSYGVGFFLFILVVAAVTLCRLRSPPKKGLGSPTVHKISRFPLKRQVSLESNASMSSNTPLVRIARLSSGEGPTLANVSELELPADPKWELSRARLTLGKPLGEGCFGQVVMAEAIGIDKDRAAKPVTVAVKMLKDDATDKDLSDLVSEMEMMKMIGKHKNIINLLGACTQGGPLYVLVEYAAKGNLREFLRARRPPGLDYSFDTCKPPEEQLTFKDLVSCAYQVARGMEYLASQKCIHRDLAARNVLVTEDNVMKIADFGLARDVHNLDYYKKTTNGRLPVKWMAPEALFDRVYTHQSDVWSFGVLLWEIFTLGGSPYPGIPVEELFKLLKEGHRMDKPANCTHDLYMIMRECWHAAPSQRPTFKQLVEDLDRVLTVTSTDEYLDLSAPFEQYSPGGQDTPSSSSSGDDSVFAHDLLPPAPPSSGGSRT
FGFR4, sequence (P22455 22-802): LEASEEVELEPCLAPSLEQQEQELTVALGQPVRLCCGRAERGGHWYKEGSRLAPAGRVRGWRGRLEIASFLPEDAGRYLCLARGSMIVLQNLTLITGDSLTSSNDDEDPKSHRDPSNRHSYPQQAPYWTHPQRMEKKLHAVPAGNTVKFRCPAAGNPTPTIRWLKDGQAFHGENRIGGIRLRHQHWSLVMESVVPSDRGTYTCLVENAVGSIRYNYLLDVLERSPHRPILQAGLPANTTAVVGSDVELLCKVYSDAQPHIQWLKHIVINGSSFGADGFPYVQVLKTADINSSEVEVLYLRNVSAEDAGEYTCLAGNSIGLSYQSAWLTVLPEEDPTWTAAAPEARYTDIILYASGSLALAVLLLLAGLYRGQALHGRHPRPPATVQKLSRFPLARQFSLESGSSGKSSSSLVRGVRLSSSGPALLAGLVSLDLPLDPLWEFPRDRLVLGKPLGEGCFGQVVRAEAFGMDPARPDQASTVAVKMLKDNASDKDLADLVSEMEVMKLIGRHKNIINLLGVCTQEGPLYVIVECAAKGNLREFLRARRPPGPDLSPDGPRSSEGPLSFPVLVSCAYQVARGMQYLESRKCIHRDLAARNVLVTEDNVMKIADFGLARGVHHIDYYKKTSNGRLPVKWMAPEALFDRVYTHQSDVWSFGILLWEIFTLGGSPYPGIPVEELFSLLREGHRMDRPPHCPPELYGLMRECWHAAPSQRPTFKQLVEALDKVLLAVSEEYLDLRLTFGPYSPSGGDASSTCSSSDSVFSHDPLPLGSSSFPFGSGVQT
FGFR1, sequence (P11362 22-822): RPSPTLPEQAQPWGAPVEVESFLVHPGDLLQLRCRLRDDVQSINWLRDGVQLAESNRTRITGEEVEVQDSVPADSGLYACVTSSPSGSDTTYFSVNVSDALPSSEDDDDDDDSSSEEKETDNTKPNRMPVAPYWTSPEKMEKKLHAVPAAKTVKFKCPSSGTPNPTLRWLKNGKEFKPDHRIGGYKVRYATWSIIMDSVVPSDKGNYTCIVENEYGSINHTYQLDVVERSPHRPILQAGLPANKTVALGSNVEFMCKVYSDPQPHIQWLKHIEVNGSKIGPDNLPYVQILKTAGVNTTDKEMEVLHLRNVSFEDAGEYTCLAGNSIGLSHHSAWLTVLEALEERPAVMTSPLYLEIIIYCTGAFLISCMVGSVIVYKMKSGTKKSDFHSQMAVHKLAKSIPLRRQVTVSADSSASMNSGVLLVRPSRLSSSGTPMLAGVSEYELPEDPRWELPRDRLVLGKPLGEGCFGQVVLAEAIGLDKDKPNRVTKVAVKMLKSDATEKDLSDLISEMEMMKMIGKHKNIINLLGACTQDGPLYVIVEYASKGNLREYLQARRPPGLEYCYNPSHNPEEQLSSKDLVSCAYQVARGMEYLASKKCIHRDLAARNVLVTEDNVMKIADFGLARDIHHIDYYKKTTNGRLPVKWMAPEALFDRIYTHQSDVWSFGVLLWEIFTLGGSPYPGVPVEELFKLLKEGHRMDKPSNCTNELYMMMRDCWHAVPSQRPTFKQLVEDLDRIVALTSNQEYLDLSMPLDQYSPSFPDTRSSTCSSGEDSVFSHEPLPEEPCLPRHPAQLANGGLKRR
FGFR2, sequence (P21802 22-821): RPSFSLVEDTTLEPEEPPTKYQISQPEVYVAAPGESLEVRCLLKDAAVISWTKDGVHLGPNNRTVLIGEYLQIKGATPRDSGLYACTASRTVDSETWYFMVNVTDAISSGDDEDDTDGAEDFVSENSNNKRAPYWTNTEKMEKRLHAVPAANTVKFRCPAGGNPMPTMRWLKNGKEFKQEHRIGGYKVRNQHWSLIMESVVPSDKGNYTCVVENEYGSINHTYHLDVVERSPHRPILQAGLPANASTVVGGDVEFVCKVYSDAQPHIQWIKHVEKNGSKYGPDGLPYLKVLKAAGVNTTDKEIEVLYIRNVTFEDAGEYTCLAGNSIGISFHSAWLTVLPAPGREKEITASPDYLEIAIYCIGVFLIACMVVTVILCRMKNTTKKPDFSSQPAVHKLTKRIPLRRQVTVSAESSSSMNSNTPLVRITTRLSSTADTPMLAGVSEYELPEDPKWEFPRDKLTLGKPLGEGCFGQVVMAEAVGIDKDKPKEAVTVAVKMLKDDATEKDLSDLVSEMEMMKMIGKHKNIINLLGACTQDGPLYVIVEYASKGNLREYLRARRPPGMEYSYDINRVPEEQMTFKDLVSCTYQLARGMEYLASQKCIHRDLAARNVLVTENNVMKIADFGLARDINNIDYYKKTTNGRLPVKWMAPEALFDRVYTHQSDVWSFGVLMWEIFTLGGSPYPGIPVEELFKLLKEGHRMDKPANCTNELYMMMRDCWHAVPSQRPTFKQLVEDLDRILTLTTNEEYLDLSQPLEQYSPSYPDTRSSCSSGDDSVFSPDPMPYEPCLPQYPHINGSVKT
FGFR3 (V555M), sequence (P22607 23-806 V555M): as the sequence (P22607 23-806) above, with V533M counted along it

SMILES	Kd [1] [nM]	Kd [2] [nM]	Kd [3] [nM]	Kd [4] [nM]	Kd [5] [nM]
C[C@@H](Oc1ccc2[nH]nc(-c3ccc(N4CC5(CCNCC5)C4)nc3)c2c1)c1c(Cl)cncc1Cl [Example 110, 3-[6-(2,7-diazaspiro[3.5]nonan-2-yl)-3-pyridyl]-5-[(1R)-1-(3,5-dichloro-4-pyridyl)ethoxy]-1H-indazole]	1 to 20	1 to 20	1 to 20	1 to 20	1 to 20
C[C@@H](Oc1ccc2[nH]nc(-c3cnc(N4CC5(CNC5)C4)nc3)c2c1)c1c(Cl)cncc1Cl [Example 118, 3-[2-(2,6-diazaspiro[3.3]heptan-2-yl)pyrimidin-5-yl]-5-[(1R)-1-(3,5-dichloro-4-pyridyl)ethoxy]-1H-indazole]	20 to 100	1 to 20	1 to 20	1 to 20	1 to 20
CCOC(=O)N1CCC2(CC1)CN(c1ncc(-c3n[nH]c4ccc(O[C@H](C)c5c(Cl)cncc5Cl)cc34)cn1)C2 [Example 126, ethyl 2-[5-[5-[(1R)-1-(3,5-dichloro-4-pyridyl)ethoxy]-1H-indazol-3-yl]pyrimidin-2-yl]-2,7-diazaspiro[3.5]nonane-7-carboxylate]	100 to 300	1 to 20	1 to 20	100 to 300	1 to 20
C[C@@H](Oc1ccc2[nH]nc(-c3cnc(N4CC5(CCCNC5)C4)nc3)c2c1)c1c(Cl)cncc1Cl [Example 132, 3-[2-(2,8-diazaspiro[3.5]nonan-2-yl)pyrimidin-5-yl]-5-[(1R)-1-(3,5-dichloro-4-pyridyl)ethoxy]-1H-indazole]	1 to 20	1 to 20	1 to 20	1 to 20	1 to 20
C[C@@H](Oc1ccc2[nH]nc(-c3cnc(N4CC5(CCNCC5)C4)nc3)c2c1)c1c(Cl)cncc1Cl [Example 133, 3-[2-(2,7-diazaspiro[3.5]nonan-2-yl)pyrimidin-5-yl]-5-[(1R)-1-(3,5-dichloro-4-pyridyl)ethoxy]-1H-indazole]	1 to 20	1 to 20	1 to 20	1 to 20	1 to 20
C[C@@H](Oc1ccc2[nH]nc(-c3cnc(N4CC5(CCCN(S(C)(=O)=O)C5)C4)nc3)c2c1)c1c(Cl)cncc1Cl [Example 134, 5-[(1R)-1-(3,5-dichloro-4-pyridyl)ethoxy]-3-[2-(8-methylsulfonyl-2,8-diazaspiro[3.5]nonan-2-yl)pyrimidin-5-yl]-1H-indazole]	20 to 100	1 to 20	1 to 20	20 to 100	1 to 20
Cc1cnnc(C)c1[C@H](C)Oc1ccc2[nH]nc(-c3cnc(N4CC5(CCS(=O)(=O)C5)C4)nc3)c2c1 [Example 147, 2-[5-[5-[(1S)-1-(3,5-dimethylpyridazin-4-yl)ethoxy]-1H-indazol-3-yl]pyrimidin-2-yl]-6λ^6-thia-2-azaspiro[3.4]octane 6,6-dioxide]	> 300	> 300	> 300	> 300	> 300
COC(=O)N1CC2(C1)CN(c1ccc(-c3n[nH]c4ccc(O[C@H](C)c5c(C)cnnc5C)cc34)cn1)C2 [Example 150, methyl 6-[5-[5-[(1R)-1-(3,5-dimethylpyridazin-4-yl)ethoxy]-1H-indazol-3-yl]-2-pyridyl]-2,6-diazaspiro[3.3]heptane-2-carboxylate]	1 to 20	1 to 20	1 to 20	1 to 20	1 to 20
Cc1cnnc(C)c1[C@@H](C)Oc1ccc2[nH]nc(-c3cnc(N4CCC5(CC4)CCS(=O)(=O)C5)nc3)c2c1 [Example 152, 8-[5-[5-[(1R)-1-(3,5-dimethylpyridazin-4-yl)ethoxy]-1H-indazol-3-yl]pyrimidin-2-yl]-2λ^6-thia-8-azaspiro[4.5]decane 2,2-dioxide]	1 to 20	1 to 20	1 to 20	20 to 100	1 to 20
COC(=O)N1CC2(C1)CN(c1ccc(-c3n[nH]c4ccc(O[C@@H](C)c5c(C)cnnc5C)cc34)cn1)C2 [Example 153, methyl 6-[5-[5-[(1S)-1-(3,5-dimethylpyridazin-4-yl)ethoxy]-1H-indazol-3-yl]-2-pyridyl]-2,6-diazaspiro[3.3]heptane-2-carboxylate]	100 to 300	20 to 100	100 to 300	> 300	1 to 20
Cc1cnnc(C)c1[C@H](C)Oc1ccc2[nH]nc(-c3cnc(N4CC5(C4)CN(S(C)(=O)=O)C5)nc3)c2c1 [Example 155, 5-[(1S)-1-(3,5-dimethylpyridazin-4-yl)ethoxy]-3-[2-(2-methylsulfonyl-2,6-diazaspiro[3.3]heptan-6-yl)pyrimidin-5-yl]-1H-indazole]	> 300	> 300	100 to 300	> 300	> 300
C[C@@H](Oc1ccc2[nH]nc(-c3cnc(N4CC5(CCNC5)C4)nc3)c2c1)c1c(Cl)cncc1Cl [Example 158, 3-[2-(2,7-diazaspiro[3.4]octan-2-yl)pyrimidin-5-yl]-5-[(1R)-1-(3,5-dichloro-4-pyridyl)ethoxy]-1H-indazole]	20 to 100	1 to 20	1 to 20	20 to 100	1 to 20

The remaining lines, values ahead:

Kd [1] [nM]	Kd [2] [nM]	Kd [3] [nM]	Kd [4] [nM]	Kd [5] [nM]	SMILES
> 300	100 to 300	20 to 100	> 300	100 to 300	COc1cc(-c2n[nH]c3ccc(O[C@H](C)c4c(Cl)cncc4Cl)cc23)cnc1N1CCOCC1 [Example 105, 4-[5-[5-[(1R)-1-(3,5-dichloro-4-pyridyl)ethoxy]-1H-indazol-3-yl]-3-methoxy-2-pyridyl]morpholine]
100 to 300	20 to 100	100 to 300	> 300	20 to 100	Cc1cnnc(C)c1[C@H](C)Oc1ccc2[nH]nc(-c3ccc(N4CC5(C4)CN(S(C)(=O)=O)C5)nc3)c2c1 [Example 149, 5-[(1S)-1-(3,5-dimethylpyridazin-4-yl)ethoxy]-3-[6-(2-methylsulfonyl-2,6-diazaspiro[3.3]heptan-6-yl)-3-pyridyl]-1H-indazole]
100 to 300	20 to 100	100 to 300	> 300	1 to 20	CCOC(=O)N1CC2(C1)CN(c1ccc(-c3n[nH]c4ccc(O[C@@H](C)c5c(C)cnnc5C)cc34)cn1)C2 [Example 151, ethyl 6-[5-[5-[(1S)-1-(3,5-dimethylpyridazin-4-yl)ethoxy]-1H-indazol-3-yl]-2-pyridyl]-2,6-diazaspiro[3.3]heptane-2-carboxylate]
> 300	100 to 300	100 to 300	> 300	20 to 100	Cc1cnnc(C)c1[C@H](C)Oc1ccc2[nH]nc(-c3cnc(N4CCC5(CC4)CCS(=O)(=O)C5)nc3)c2c1 [Example 154, 8-[5-[5-[(1S)-1-(3,5-dimethylpyridazin-4-yl)ethoxy]-1H-indazol-3-yl]pyrimidin-2-yl]-2λ^6-thia-8-azaspiro[4.5]decane 2,2-dioxide]
20 to 100	1 to 20	1 to 20	100 to 300	1 to 20	Cc1cnnc(C)c1[C@@H](C)Oc1ccc2[nH]nc(-c3cnc(N4CC5(C4)CN(S(C)(=O)=O)C5)nc3)c2c1 [Example 156, 5-[(1R)-1-(3,5-dimethylpyridazin-4-yl)ethoxy]-3-[2-(2-methylsulfonyl-2,6-diazaspiro[3.3]heptan-6-yl)pyrimidin-5-yl]-1H-indazole]
